Numbered stars: 1 amine (or outer) side, 2 acyl side, 3 side chain; on linkers, the order of the positions; unused ones are H or OH. Side chains are listed from the residue outwards. Peptide text beside a SMILES is read from it. * marks the point of attachment. γGlu = O=C(O)[C@H](CCC(=O)[*:2])N[*:1]; Palmitoyl = CCCCCCCCCCCCCCCC(=O)*
How the values were obtained:
Format in all cases: cell-based, human
[1] = tested on: p-c-Jun, p-ERK, p-Bad, Bax/Bcl-2 in SH-SY5Y cells; assay: Western blotting of anti-apoptotic signaling in MG-stressed cells; details: 4 h pretreatment 1 × 10^−5 M, then 0.6 mM MG 16 h, vs MG, triplicates; for decrease of the MG-increased level of p-Bad (Ser112)/Bad / decrease of the MG-increased level of p-Bad (Ser136)/Bad / decrease of the MG-increased level of p-c-Jun (Ser73)/c-Jun: normalized to GAPDH
Method: Figure 7 PrRP31 and palm^11-PrRP31 affected anti-apoptotic signaling in SH-SY5Y cells. Immunoblots: (a) and their quantifications: (b). SH-SY5Y cells were pretreated with PrRP31 and palm^11-PrRP31 at a concentration of 1 × 10^−5 M for 4 h and then stressed with 0.6 mM MG for 16 h. Activation was expressed as the ratio of the activated protein to the total amount of the protein, both normalized to loading control, GAPDH. Data are presented as the means ± SEM as a percentage of control cells treated with medium alone. Analysis is made vs. MG by a Student’s t-test, * p < 0.5, ** p < 0.01 (each sample in triplicates).
(§1) For the investigation of the molecular mechanism of PrRP31 and its analog in the cells, signaling pathways were studied by Western blotting (WB). The cells were cultured in 6-well plates at a density of 800,000 cells per well. Growth medium was exchanged for serum-free DMEM 16 h before an experiment, and then, the cells were incubated with PrRP31, palm^11-PrRP31, or scrambled peptide at a final concentration of 1 × 10^−5 M or insulin at a concentration of 1 × 10^−7 M at 37 °C for 8 min. The cells were rapidly cooled on ice and lysed in 400 µl of Laemmli sample buffer (62.5 mM Tris-HCl with pH 6.8, 2% SDS, 10% glycerol, 0.01% bromophenol blue, 5% mercaptoethanol, 50 mM NaF, and 1 mM Na3VO4) and stored at −20 °C. Afterward, the cell lysates were analyzed by WB. SDS-electrophoresis and WB were carried out using a Criterion system with a 26-well 4−15% Criterion^TM TGX^TM Precast Midi Protein Gel (Bio-Rad, Hercules, CA, USA) at a constant voltage of 200 V or 100 V, respectively.
(§2) Subsequently, the membranes were incubated overnight with primary antibody (Ab) at 4 °C, according to the manufacturer´s instructions (Table 2). The next day, the membranes were incubated with an HRP-linked secondary antibody for 1 h at room temperature. Chemiluminescence was visualized with a ChemiDoc^TM System (Bio-Rad). Band intensities were normalized using glyceraldehyde 3-phosphate dehydrogenase (GAPDH) as an internal loading control.
For analysis of the molecular mechanism during MG stress, the growth medium was exchanged for serum-free DMEM 16 h before the experiment. The cells were pretreated with 1 × 10^−5 M PrRP31 or palm^11-PrRP31 for 4 h; then, MG was added to a final concentration of 0.6 mM, and the cells were incubated at 37 °C for 16 h. The controls and compounds were tested in triplicate.

[2] = tested on: p-m-Tor, p-GSK-3β, p-ERK, p-CREB in SH-SY5Y cells; assay: Western blotting with selective inhibitors of signaling pathways; details: insulin 1 × 10^−7 M, 37 °C, 8 min; for p-CREB after incubation with peptide, no inhibitor / p-ERK after incubation with peptide, no inhibitor / p-m-Tor (Ser2448) after application of peptide, no inhibitor: PrRP31 and palm^11-PrRP31 1 × 10^−5 M
Method: Immunoblots with PrRP31 and palm^11-PrRP31: (a) and insulin: (b) and their quantifications: (c). SH-SY5Y cells were incubated firstly with selective inhibitors for 2 min and then either with PrRP31 and its palmitoylated analog at a final concentration 1 × 10^−5 M, or with insulin in the final concentration 1 × 10^−7 M at 37 °C for 8 min, or alone in serum-free medium. Activated protein was normalized to loading control, GAPDH. Data are presented as the means ± SEM as a percentage of control cells treated with medium alone. Analysis is made between groups as shown in the graph by a Student’s t-test, * p < 0.5, ** p < 0.01, *** p < 0.001(each sample in triplicates).
Eight minutes of incubation was performed in a series of experiments with different exposure times (5, 10, 15, 30, and 60 min) to PrRP31 and its palmitoylated analog. Activation of analogs was strongest after 10 min. Then, the cells were treated with inhibitors of signaling pathways for 2 min, and analogs were added for 8 min. The time of exposure was set to 8 min to ensure that the incubation time for PrRP31 and its palmitoylated analog was the same. The controls and compounds were tested in triplicate in three independent experiments. The PI3K/Akt pathway is one of the main signaling pathways of insulin; therefore, insulin was used as a positive control. Scrambled peptide was used as a negative control. Activation is expressed as the ratio of the activated protein to the total amount of the protein. GAPDH was used as a loading control.
For further research, inhibitors of signaling pathways were used. The growth medium was exchanged for serum-free DMEM 16 h before the experiment. On the day of the experiment, cells were incubated for 2 min with rapamycin, SB216736 or U0126 at a final concentration of 1 × 10^−6 M; then, PrRP31, palm^11-PrRP31 or scrambled peptide at a final concentration of 1 × 10^−5 M or insulin at a concentration of 1 × 10^−7 M was added for 8 min. The plates were stored at 37 °C. The controls and compounds were tested in triplicate.

[3] = tested on: ERK-CREB signaling pathway in SH-SY5Y cells; assay: Western blotting of ERK-CREB signaling pathway after 8 min incubation; details: 1 × 10^−5 M, 37 °C, vs control cells (medium alone), normalized to GAPDH, n = 3, triplicates
Method: Figure 2 PrRP31 and palm^11-PrRP31 increased phosphorylation of extracellular signal-regulated kinase/cAMP response element-binding protein (ERK-CREB) signaling pathway in SH-SY5Y cells. Immunoblots: (a) and their quantifications: (b). SH-SY5Y cells were incubated either with PrRP31 and its palmitoylated analog and scrambled at a final concentration 1 × 10^−5 M, or with insulin at the final concentration 1 × 10^−7 M at 37 °C for 8 min, or medium alone. Activation was expressed as the ratio of the activated protein to the total amount of the protein, both normalized to loading control, GAPDH. Data are presented as the means ± SEM as a percentage of control cells treated with medium alone analyzed by one-way ANOVA followed by the Dunnett post hoc test, * p < 0.5, ** p < 0.01, **** p < 0.0001 (n = 3, each sample in triplicates).
as §1, §2
Eight minutes of incubation was performed in a series of experiments with different exposure times (5, 10, 15, 30, and 60 min) to PrRP31 and its palmitoylated analog. Activation of analogs was strongest after 10 min. Then, the cells were treated with inhibitors of signaling pathways for 2 min, and analogs were added for 8 min. […] Activation is expressed as the ratio of the activated protein to the total amount of the protein. […]

[4] = normalized to GAPDH, triplicates

Row | Structure (SMILES) | decrease of the MG-increased level of p-Bad (Ser112)/Bad [1] | decrease of the MG-increased level of p-Bad (Ser136)/Bad [1] | decrease of the MG-increased level of p-c-Jun (Ser73)/c-Jun [1] | p-CREB after incubation with peptide, no inhibitor [2] | p-ERK after incubation with peptide, no inhibitor [2] | p-m-Tor (Ser2448) after application of peptide, no inhibitor [2, 4] | increase of p-CREB (Ser133)/CREB [3] [%] | increase of p-ERK (Thr 202/Tyr204)/ERK [3] [%] | attenuation of the MG-increased ratio of Bax/Bcl−2 [1] [%] | p-GSK-3β (Ser9) after incubation with peptide, no inhibitor ([2]; palm^11-PrRP31 1 × 10^−5 M, normalized to GAPDH, triplicates)
1 | CC[C@H](C)[C@H](NC(=O)CNC(=O)[C@H](CCCNC(=N)N)NC(=O)[C@H](CO)NC(=O)[C@H](C)NC(=O)[C@H](Cc1ccc(O)cc1)NC(=O)[C@H](Cc1c[nH]c2ccccc12)NC(=O)[C@H](C)NC(=O)[C@@H]1CCCN1C(=O)[C@H](CC(N)=O)NC(=O)[C@@H](NC(=O)[C@H](CC(=O)O)NC(=O)[C@@H]1CCCN1C(=O)[C@@H](NC(=O)[C@H](CCCNC(=N)N)NC(=O)[C@@H](NC(=O)[C@H](CCC(=O)O)NC(=O)[C@H](CCSC)NC(=O)[C@H](CO)NC(=O)[C@H](Cc1c[nH]cn1)NC(=O)[C@H](CCCNC(=N)N)NC(=O)[C@H](Cc1c[nH]cn1)NC(=O)[C@@H](NC(=O)[C@H](CCCNC(=N)N)NC(=O)[C@@H](N)CO)[C@@H](C)O)[C@@H](C)CC)[C@@H](C)O)[C@@H](C)CC)C(=O)N[C@@H](CCCNC(=N)N)C(=O)N1CCC[C@H]1C(=O)N[C@H](C(=O)NCC(=O)N[C@@H](CCCNC(=N)N)C(=O)N[C@@H](Cc1ccccc1)C(N)=O)C(C)C [PrRP31] | tended to decrease | tended to decrease | tended to decrease | increased | increased | significantly increased | 68 | 36 | – | –
2 | CCCCCCCCCCCCCCCC(=O)N[C@@H](CCC(=O)NCCCC[C@H](NC(=O)[C@@H](NC(=O)[C@H](CCC(=O)O)NC(=O)[C@H](CCSC)NC(=O)[C@H](CO)NC(=O)[C@H](Cc1c[nH]cn1)NC(=O)[C@H](CCCNC(=N)N)NC(=O)[C@H](Cc1c[nH]cn1)NC(=O)[C@@H](NC(=O)[C@H](CCCNC(=N)N)NC(=O)[C@@H](N)CO)[C@@H](C)O)[C@@H](C)CC)C(=O)N[C@H](C(=O)N1CCC[C@H]1C(=O)N[C@@H](CC(=O)O)C(=O)N[C@H](C(=O)N[C@@H](CC(N)=O)C(=O)N1CCC[C@H]1C(=O)N[C@@H](C)C(=O)N[C@@H](Cc1c[nH]c2ccccc12)C(=O)N[C@@H](Cc1ccc(O)cc1)C(=O)N[C@@H](C)C(=O)N[C@@H](CO)C(=O)N[C@@H](CCCNC(=N)N)C(=O)NCC(=O)N[C@H](C(=O)N[C@@H](CCCNC(=N)N)C(=O)N1CCC[C@H]1C(=O)N[C@H](C(=O)NCC(=O)N[C@@H](CCCNC(=N)N)C(=O)N[C@@H](Cc1ccccc1)C(N)=O)C(C)C)[C@@H](C)CC)[C@@H](C)CC)[C@@H](C)O)C(=O)O [palm^11-PrRP31] (H-SRTHRHSMEIK([γGlu-Palmitoyl])TPDINPAWYASRGIRPVGRF-NH2; N-terminus assumed) | 46% | 52% | 37% | increased | increased | significantly increased | 238 | 74 | 38 | slight increase

Reference: PMC7503370, “Cellular Signaling and Anti-Apoptotic Effects of Prolactin-Releasing Peptide and Its Analog on SH-SY5Y Cells” (International Journal of Molecular Sciences, 2020)
